Assay in all cases: biochemical
Common to all, as to format: biochemical

Assay [1] has as its target T1, 382 unique human kinases (Homo sapiens, UniProt Q02750).
T1 construct: purchased Reaction Biology (HotSpot contract assay)
Conditions: kinase MEK1, compound 10 uM; for remaining activity at 10 µM: read-out: % Enzyme Activity (relative to DMSO controls).

For assay [2], the target named is T2, 382 unique human kinases (Homo sapiens, UniProt Q6P5Z2).
T2 construct: purchased Reaction Biology (HotSpot contract assay)
T2 sequence (Q6P5Z2 whole entry): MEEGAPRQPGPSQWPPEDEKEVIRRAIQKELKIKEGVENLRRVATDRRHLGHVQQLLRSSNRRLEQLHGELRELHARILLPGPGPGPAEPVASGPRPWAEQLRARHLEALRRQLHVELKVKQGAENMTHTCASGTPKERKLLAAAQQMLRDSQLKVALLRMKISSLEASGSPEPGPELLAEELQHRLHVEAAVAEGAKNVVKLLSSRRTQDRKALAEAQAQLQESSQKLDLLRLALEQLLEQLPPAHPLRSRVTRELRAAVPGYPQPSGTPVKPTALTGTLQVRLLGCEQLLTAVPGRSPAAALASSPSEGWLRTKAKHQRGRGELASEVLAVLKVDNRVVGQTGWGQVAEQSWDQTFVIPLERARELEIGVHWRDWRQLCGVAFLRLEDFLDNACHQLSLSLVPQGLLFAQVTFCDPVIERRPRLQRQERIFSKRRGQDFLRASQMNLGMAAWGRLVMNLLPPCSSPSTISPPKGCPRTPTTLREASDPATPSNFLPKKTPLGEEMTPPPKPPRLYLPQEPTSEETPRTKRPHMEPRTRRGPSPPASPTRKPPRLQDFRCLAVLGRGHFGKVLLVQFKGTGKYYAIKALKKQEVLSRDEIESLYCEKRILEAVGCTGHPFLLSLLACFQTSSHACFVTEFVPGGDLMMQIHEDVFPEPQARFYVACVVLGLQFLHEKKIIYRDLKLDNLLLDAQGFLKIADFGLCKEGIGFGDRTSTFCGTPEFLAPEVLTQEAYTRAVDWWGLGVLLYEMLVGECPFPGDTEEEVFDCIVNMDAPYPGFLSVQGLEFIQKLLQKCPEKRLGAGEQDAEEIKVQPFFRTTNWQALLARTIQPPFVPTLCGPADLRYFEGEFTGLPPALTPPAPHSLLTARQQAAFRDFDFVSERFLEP
The note with it: kinase PKN3/PRK3, compound 10 uM; for remaining activity at 10 µM: read-out: % Enzyme Activity (relative to DMSO controls).

In assay [3] the target is T3, 382 unique human kinases (Homo sapiens, UniProt Q9NRM7).
T3 construct: purchased Reaction Biology (HotSpot contract assay)
T3 sequence (Q9NRM7 1-1088): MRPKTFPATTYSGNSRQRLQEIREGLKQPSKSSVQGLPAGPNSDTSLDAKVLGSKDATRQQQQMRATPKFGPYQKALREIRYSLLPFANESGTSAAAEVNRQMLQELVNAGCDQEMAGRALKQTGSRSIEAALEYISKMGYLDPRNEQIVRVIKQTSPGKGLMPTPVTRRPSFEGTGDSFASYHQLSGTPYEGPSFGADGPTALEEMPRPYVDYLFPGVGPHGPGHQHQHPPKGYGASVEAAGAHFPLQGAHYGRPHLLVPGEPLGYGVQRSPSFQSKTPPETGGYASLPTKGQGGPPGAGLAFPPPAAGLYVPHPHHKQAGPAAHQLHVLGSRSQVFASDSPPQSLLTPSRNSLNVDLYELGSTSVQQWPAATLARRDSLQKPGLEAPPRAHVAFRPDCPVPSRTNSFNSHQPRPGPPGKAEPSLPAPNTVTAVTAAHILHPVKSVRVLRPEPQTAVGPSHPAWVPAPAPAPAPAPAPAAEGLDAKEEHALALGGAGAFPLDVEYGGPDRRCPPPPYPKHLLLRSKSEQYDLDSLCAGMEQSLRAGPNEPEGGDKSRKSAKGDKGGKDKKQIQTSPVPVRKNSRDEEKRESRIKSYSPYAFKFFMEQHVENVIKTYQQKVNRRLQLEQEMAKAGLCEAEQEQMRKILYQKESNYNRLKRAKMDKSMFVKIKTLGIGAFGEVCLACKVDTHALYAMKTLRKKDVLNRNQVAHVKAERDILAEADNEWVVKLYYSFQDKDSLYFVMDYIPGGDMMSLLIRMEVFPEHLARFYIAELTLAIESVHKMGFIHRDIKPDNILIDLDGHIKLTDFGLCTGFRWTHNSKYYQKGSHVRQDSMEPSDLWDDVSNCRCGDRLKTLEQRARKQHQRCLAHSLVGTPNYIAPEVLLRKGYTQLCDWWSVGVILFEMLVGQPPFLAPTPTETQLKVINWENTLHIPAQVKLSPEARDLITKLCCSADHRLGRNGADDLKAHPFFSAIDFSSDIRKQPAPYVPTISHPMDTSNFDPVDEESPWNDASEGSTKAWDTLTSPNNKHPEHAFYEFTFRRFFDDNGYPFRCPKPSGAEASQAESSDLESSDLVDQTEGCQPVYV
The note with it: LATS2, 10 uM; for remaining activity at 10 µM: read-out: % Enzyme Activity (relative to DMSO controls).

For assay [4], the target named is T4, 382 unique human kinases (Homo sapiens, UniProt O43318).
T4 construct: purchased Reaction Biology (HotSpot contract assay)
T4 sequence (O43318 1-606): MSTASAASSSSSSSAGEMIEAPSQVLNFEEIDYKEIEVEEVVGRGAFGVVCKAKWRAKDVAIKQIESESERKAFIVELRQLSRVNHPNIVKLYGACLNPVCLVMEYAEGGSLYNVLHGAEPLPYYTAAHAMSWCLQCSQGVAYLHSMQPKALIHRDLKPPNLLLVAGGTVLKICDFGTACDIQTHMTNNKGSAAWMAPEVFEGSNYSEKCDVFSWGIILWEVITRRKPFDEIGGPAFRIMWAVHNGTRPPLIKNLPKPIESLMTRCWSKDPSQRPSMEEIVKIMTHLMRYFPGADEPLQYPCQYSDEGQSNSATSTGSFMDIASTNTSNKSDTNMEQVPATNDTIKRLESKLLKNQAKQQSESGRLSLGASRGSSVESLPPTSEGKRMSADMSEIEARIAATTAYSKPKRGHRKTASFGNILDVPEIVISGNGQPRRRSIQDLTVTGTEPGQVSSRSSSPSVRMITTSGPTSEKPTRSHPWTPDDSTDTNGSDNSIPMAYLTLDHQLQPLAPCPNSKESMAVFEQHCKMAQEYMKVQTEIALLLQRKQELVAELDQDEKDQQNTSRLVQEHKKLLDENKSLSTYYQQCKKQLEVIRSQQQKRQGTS
Conditions: kinase TAK1, compound 10 uM; for remaining activity at 10 µM: read-out: % Enzyme Activity (relative to DMSO controls).

Assay [5] deals with T5, 382 unique human kinases (Homo sapiens, UniProt P22607, K650E).
T5 construct: purchased Reaction Biology (HotSpot contract assay)
T5 sequence (P22607 23-806 K650E): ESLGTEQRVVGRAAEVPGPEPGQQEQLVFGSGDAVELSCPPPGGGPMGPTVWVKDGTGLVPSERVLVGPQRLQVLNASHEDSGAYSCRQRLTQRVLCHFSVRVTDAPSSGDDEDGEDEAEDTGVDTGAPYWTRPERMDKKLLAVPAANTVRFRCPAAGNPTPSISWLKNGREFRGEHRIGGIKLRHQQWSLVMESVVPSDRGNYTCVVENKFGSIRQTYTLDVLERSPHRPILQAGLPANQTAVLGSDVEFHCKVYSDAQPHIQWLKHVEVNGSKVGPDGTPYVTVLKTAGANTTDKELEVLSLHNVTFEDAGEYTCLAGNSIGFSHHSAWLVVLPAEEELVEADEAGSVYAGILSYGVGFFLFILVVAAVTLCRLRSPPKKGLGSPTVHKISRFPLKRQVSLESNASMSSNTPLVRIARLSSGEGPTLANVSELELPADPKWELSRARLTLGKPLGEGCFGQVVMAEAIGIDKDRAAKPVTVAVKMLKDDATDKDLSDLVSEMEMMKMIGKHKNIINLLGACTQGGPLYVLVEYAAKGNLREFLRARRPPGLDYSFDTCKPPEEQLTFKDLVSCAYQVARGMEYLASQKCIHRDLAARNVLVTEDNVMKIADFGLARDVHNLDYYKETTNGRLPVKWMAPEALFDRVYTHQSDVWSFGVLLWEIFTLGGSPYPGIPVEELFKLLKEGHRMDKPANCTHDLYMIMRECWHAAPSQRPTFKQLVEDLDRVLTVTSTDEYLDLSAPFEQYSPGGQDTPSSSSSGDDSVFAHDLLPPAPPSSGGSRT
The note with it: FGFR3 (K650E), 10 uM; for remaining activity at 10 µM: read-out: % Enzyme Activity (relative to DMSO controls).

Assay [6] addresses T6, 382 unique human kinases (Homo sapiens, UniProt P48729).
T6 construct: purchased Reaction Biology (HotSpot contract assay)
The note with it: kinase CK1a1, compound 10 uM; for remaining activity at 10 µM: read-out: % Enzyme Activity (relative to DMSO controls).

For assay [7], the target named is T7, 382 unique human kinases (Homo sapiens, UniProt P45984).
T7 construct: purchased Reaction Biology (HotSpot contract assay)
T7 sequence (P45984 whole entry): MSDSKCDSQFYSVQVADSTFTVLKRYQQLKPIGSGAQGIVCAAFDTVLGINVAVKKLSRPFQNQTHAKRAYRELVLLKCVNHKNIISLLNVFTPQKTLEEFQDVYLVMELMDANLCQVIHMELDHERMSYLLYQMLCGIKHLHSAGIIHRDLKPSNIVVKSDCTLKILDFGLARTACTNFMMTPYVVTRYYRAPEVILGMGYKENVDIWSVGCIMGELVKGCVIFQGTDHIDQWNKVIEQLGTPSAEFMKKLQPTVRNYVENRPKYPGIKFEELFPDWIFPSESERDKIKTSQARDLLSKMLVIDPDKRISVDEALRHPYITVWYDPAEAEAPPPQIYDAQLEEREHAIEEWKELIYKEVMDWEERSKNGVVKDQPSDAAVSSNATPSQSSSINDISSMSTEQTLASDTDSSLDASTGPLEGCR
Conditions: kinase JNK2, compound 10 uM; for remaining activity at 10 µM: read-out: % Enzyme Activity (relative to DMSO controls).

Assay [8] deals with T8, 382 unique human kinases (Homo sapiens, UniProt P22455, V550M).
T8 construct: purchased Reaction Biology (HotSpot contract assay)
T8 sequence (P22455 22-802 V550M): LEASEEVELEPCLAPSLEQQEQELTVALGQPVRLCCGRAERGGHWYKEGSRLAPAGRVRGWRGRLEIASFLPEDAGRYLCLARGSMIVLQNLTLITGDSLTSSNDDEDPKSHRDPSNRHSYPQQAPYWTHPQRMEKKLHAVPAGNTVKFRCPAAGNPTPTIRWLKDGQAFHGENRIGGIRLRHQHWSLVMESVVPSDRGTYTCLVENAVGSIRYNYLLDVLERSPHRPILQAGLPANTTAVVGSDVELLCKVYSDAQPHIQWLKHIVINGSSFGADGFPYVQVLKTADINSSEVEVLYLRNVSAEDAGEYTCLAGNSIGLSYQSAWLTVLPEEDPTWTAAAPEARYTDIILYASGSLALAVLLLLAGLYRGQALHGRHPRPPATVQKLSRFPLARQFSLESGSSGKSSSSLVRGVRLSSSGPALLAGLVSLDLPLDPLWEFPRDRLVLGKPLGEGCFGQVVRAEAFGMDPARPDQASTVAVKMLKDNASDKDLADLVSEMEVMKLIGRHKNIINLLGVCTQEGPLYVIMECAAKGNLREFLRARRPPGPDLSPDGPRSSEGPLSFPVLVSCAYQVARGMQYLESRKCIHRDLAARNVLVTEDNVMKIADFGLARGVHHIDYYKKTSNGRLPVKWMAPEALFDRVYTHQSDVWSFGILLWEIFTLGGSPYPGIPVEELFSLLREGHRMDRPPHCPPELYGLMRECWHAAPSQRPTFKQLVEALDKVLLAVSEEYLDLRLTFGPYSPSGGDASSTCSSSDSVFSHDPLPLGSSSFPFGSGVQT
The note with it: FGFR4 (V550M), 10 uM; for remaining activity at 10 µM: read-out: % Enzyme Activity (relative to DMSO controls).

Assay [9] addresses T9, 382 unique human kinases (Homo sapiens, UniProt P08581, D1228N).
T9 construct: purchased Reaction Biology (HotSpot contract assay)
Conditions: c-MET (D1228N), compound at 10 uM, duplicate values; for remaining activity at 10 µM: read-out: % Enzyme Activity (relative to DMSO controls).

The target in assay [10] is T10, 382 unique human kinases (Homo sapiens, UniProt P15056, K601E).
T10 construct: purchased Reaction Biology (HotSpot contract assay)
T10 sequence (P15056 whole entry K601E): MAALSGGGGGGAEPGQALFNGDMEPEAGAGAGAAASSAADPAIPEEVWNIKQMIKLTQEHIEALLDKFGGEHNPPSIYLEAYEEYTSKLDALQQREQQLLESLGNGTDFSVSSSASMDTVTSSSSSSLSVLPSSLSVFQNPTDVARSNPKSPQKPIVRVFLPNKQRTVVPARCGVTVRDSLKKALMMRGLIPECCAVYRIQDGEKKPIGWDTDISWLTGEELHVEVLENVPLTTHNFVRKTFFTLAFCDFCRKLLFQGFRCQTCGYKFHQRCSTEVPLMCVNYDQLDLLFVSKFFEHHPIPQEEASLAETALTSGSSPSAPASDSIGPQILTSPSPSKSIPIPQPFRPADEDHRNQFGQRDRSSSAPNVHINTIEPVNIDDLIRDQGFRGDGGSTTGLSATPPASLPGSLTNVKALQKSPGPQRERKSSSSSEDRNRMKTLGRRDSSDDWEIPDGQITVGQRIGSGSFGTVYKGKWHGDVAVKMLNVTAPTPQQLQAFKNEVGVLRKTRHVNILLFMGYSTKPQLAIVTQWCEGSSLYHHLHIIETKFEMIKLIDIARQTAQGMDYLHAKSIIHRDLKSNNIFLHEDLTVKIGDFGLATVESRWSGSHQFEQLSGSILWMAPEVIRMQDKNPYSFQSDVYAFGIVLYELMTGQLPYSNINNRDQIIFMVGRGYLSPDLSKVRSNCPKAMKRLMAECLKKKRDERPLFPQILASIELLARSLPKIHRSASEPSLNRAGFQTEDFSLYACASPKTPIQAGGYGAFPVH
Conditions: BRAF (K601E), compound at 10 uM, duplicate values; for remaining activity at 10 µM: read-out: % Enzyme Activity (relative to DMSO controls).

The target of assay [11] is T11, 382 unique human kinases (Homo sapiens, UniProt Q02779).
T11 construct: purchased Reaction Biology (HotSpot contract assay)
T11 sequence (Q02779 whole entry): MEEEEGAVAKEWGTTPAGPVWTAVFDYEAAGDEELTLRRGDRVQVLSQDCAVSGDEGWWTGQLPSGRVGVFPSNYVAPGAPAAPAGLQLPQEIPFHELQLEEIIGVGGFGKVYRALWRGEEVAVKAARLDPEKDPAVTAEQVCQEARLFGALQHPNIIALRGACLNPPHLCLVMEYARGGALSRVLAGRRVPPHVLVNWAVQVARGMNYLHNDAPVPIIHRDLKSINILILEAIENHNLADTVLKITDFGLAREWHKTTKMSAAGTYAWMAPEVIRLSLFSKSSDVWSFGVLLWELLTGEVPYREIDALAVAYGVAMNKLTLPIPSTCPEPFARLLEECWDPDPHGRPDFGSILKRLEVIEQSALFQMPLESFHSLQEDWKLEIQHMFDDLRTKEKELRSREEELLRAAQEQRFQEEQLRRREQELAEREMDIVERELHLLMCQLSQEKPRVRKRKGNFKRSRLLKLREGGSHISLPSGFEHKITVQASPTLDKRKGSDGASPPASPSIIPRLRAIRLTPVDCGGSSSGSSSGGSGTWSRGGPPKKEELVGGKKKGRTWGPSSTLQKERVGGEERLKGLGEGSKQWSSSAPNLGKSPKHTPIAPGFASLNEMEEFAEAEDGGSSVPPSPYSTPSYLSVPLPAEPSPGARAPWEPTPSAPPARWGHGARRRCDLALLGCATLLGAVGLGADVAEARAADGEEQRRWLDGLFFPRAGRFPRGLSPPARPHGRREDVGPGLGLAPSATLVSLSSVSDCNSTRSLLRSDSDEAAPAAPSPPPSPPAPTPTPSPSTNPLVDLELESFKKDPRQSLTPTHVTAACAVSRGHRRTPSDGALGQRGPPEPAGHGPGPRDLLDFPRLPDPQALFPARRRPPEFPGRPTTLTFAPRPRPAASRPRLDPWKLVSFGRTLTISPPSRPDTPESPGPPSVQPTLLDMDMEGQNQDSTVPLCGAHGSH
The note with it: kinase MLK2/MAP3K10, compound 10 uM; for remaining activity at 10 µM: read-out: % Enzyme Activity (relative to DMSO controls).

Assay [12] has as its target T12, 382 unique human kinases (Homo sapiens, UniProt P00533, DEL752-759).
T12 construct: purchased Reaction Biology (HotSpot contract assay)
Conditions: EGFR (d752-759), 10 uM; for remaining activity at 10 µM: read-out: % Enzyme Activity (relative to DMSO controls).

For assay [13], the target named is T13, 382 unique human kinases (Homo sapiens, UniProt P06241, Y531F).
T13 construct: purchased Reaction Biology (HotSpot contract assay)
Conditions: FYN (Y531F), [ATP] 5 µM, compound 10 uM; for remaining activity at 10 µM: read-out: % Enzyme Activity (relative to DMSO controls).

For assay [14], the target named is T14, 382 unique human kinases (Homo sapiens, UniProt P08581, T992I).
T14 construct: purchased Reaction Biology (HotSpot contract assay)
Conditions: c-MET (T992I), 10 uM; for remaining activity at 10 µM: read-out: % Enzyme Activity (relative to DMSO controls).

The target of assay [15] is T15, 382 unique human kinases (Homo sapiens, UniProt P08581, M1250T).
T15 construct: purchased Reaction Biology (HotSpot contract assay)
The note with it: c-MET (M1250T), 10 uM; for remaining activity at 10 µM: read-out: % Enzyme Activity (relative to DMSO controls).

The structures appear in SMILES notation.

T6 sequence (P48729 whole entry): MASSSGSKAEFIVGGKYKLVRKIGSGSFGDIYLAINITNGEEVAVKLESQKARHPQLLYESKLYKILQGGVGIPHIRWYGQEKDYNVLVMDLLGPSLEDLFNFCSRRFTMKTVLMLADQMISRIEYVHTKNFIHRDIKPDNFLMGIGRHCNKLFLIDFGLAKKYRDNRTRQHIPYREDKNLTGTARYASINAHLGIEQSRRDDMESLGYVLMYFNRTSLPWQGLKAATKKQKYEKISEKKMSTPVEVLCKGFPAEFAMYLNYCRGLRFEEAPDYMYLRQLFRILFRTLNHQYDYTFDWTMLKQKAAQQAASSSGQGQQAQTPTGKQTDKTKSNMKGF

Turning to `CC(C)c1cc(-c2n[nH]c(=O)n2-c2ccc3c(ccn3C)c2)c(O)cc1O` [Ganetespib (STA9090)], the remaining activity at 10 µM on 382 unique human kinases [1] turned out to be 90.3%; at 382 unique human kinases [2], 83.9%; on 382 unique human kinases [3], 74.3%; at 382 unique human kinases [4], 85.8%; on 382 unique human kinases [5], 66.5%; on 382 unique human kinases [6] it was 84.4%. Besides, the remaining activity at 10 µM at 382 unique human kinases [7] came to 90%; on 382 unique human kinases [8], 85.2%; at 382 unique human kinases [9], 108%; at 382 unique human kinases [10] it was 107%; at 382 unique human kinases [11], 98.6%.
Take `CC(C)c1cc(-c2n[nH]c(=O)n2-c2ccc3c(ccn3C)c2)c(O)cc1O` [Ganetespib]: the remaining activity at 10 µM on 382 unique human kinases [12] was found to be 103%; on 382 unique human kinases [13] it was 7.4%; on 382 unique human kinases [14] it was 95.6%; at 382 unique human kinases [15], 99.8%.
With `CCNC(=O)c1noc(-c2cc(C(C)C)c(O)cc2O)c1-c1ccc(CN2CCOCC2)cc1` [Luminespib (AUY-922)], the “% Enzyme Activity (relative to DMSO controls)” value on 382 unique human kinases [1] stood at 95.75%; at 382 unique human kinases [2], 102.60%; at 382 unique human kinases [3] it was 91.88%; at 382 unique human kinases [4], 96.28%; at 382 unique human kinases [5], 98.78%; on 382 unique human kinases [6], 96.26%. Also, the “% Enzyme Activity (relative to DMSO controls)” value is reported as 99.14% at 382 unique human kinases [7]; 64.75% on 382 unique human kinases [8]; 105.32% on 382 unique human kinases [9]; 100.38% on 382 unique human kinases [10]; 89.74% at 382 unique human kinases [11]. Besides, the remaining activity at 10 µM came to 95.8% on 382 unique human kinases [1]; 104% on 382 unique human kinases [2]; 94.8% at 382 unique human kinases [3]; 96.7% at 382 unique human kinases [4]; 101% at 382 unique human kinases [5]; 101% on 382 unique human kinases [6]. Further, the remaining activity at 10 µM was 99.7% at 382 unique human kinases [7]; 72.2% at 382 unique human kinases [8]; 107% at 382 unique human kinases [9]; 101% on 382 unique human kinases [10]; 91.1% on 382 unique human kinases [11].
As for `CCNC(=O)c1noc(-c2cc(C(C)C)c(O)cc2O)c1-c1ccc(CN2CCOCC2)cc1` [Luminespib], the “% Enzyme Activity (relative to DMSO controls)” value on 382 unique human kinases [12] amounted to 98.01%; on 382 unique human kinases [13], 23.48%; at 382 unique human kinases [14], 90.73%; at 382 unique human kinases [15], 112.05%. Further, the remaining activity at 10 µM was found to be 99.4% on 382 unique human kinases [12], 24.2% on 382 unique human kinases [13], 91.3% on 382 unique human kinases [14] and 113% on 382 unique human kinases [15].
